The record followed here is PubChem BioAssay (NCI).

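Exposure lasted 48 hours, with cells grown in 96-well plates and compounds tested at five concentrations. GI50 marks 50% less growth. TGI: total growth inhibition.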

Some test systems named below: 786-0 renal; MDA-MB-435; NCI-H460 lung; NCI-H522 lung; OVCAR-4 ovarian; SF-268 CNS; SK-MEL-2 melanoma; SK-OV-3 ovarian; SNB-19 CNS; CCRF-CEM leukemia.
Experiment in all cases: NCI tumour cell line growth inhibition, 48 h

Take `Cc1ccc(S(=O)(=O)NC(=O)NCCc2ccc(O)c(O)c2)cc1`: the TGI with 786-0 renal, with MDA-MB-435, in the test on NCI-H460 lung, with NCI-H522 lung, in the test on OVCAR-4 ovarian and with SF-268 CNS was > 100 µM in each case. Besides, the TGI with SK-MEL-2 melanoma, in the test on SK-OV-3 ovarian and in the test on SNB-19 CNS was > 100 µM in each case.
Regarding `C=CC(C)(C)C1(CC(OC)OC)C(=O)N(C)c2ccccc21` (centres undefined), the TGI in the test with 786-0 renal, in the test with CCRF-CEM leukemia, in the test with MDA-MB-435, with NCI-H460 lung, in the test on OVCAR-4 ovarian and with SF-268 CNS was > 25 µM each time. Besides, the TGI with SK-MEL-2 melanoma, with SK-OV-3 ovarian and with SNB-19 CNS was > 25 µM throughout.
For the molecule `CCCCOc1c(C(=O)O)cc(Br)cc1C(=O)O`, the TGI in the test with 786-0 renal, with MDA-MB-435, in the test on NCI-H460 lung, with NCI-H522 lung, in the test on OVCAR-4 ovarian and in the test on SF-268 CNS was > 100 µM each time. The TGI in the test on SK-MEL-2 melanoma, with SK-OV-3 ovarian and with SNB-19 CNS was > 100 µM throughout.
With `CCn1c(-c2ccc(OC)cc2)nc2c1C(=O)c1ccccc1C2=O`, the TGI in the test on 786-0 renal, in the test with CCRF-CEM leukemia, with MDA-MB-435, in the test on NCI-H460 lung, in the test with NCI-H522 lung and with OVCAR-4 ovarian was > 100 µM throughout. Besides, the TGI in the test with SF-268 CNS, in the test on SK-OV-3 ovarian and with SNB-19 CNS was > 100 µM in each case.
Turning to `COC(=O)CCCC1(CCCC(=O)OC)CCCCCCCCC(CCCC(=O)OC)(CCCC(=O)OC)C(=O)C1=O`, the TGI was 33.5 µM in the test with 786-0 renal; > 100 µM in the test with MDA-MB-435; > 100 µM in the test on NCI-H460 lung; 5.38 µM with NCI-H522 lung; 54.7 µM with OVCAR-4 ovarian; 55.3 µM with SF-268 CNS. In addition, the TGI in the test with SK-MEL-2 melanoma was 70.5 µM; in the test with SK-OV-3 ovarian, > 100 µM; in the test with SNB-19 CNS it was > 100 µM.
As to `O=C(OCC1CCCN2CCCCC12)c1cccnc1` (centres undefined), the TGI in the test with 786-0 renal, in the test with CCRF-CEM leukemia, in the test on MDA-MB-435, in the test with NCI-H460 lung, with OVCAR-4 ovarian and with SF-268 CNS was > 100 µM in each case. The TGI in the test with SK-MEL-2 melanoma, in the test on SK-OV-3 ovarian and in the test on SNB-19 CNS was > 100 µM throughout.
Take `CC(C)NCC(O)c1ccc(O)c2ncccc12` (centres undefined): the TGI in the test on 786-0 renal, in the test on MDA-MB-435, in the test on NCI-H460 lung, with NCI-H522 lung, in the test with OVCAR-4 ovarian and with SF-268 CNS was > 100 µM in each case. The TGI in the test on SK-MEL-2 melanoma, in the test with SK-OV-3 ovarian and with SNB-19 CNS was > 100 µM each time.
As to `C[C@]12C(=O)C=CCC1=CC[C@@H]1[C@@H]2[C@H]2CC3(O)C(=O)O[C@@]4(C)[C@H]5C[C@@]6(C)[C@@H]7[C@@]2(O)[C@]1(OC[C@H]6C(=O)O5)O[C@]734` (some centres undefined), the TGI with 786-0 renal is > 100 µM; with CCRF-CEM leukemia, > 100 µM; with MDA-MB-435, > 100 µM; in the test with NCI-H460 lung, > 100 µM; with NCI-H522 lung, 46.2 µM; in the test with OVCAR-4 ovarian it was > 100 µM. The TGI in the test with SF-268 CNS, with SK-MEL-2 melanoma and in the test on SNB-19 CNS was > 100 µM each time.
Turning to `CC1(C)Oc2ccc3c(=O)cc(-c4cccs4)oc3c2C1C(=O)O` (centres undefined), the TGI in the test with 786-0 renal, in the test on CCRF-CEM leukemia, with MDA-MB-435, in the test with NCI-H522 lung, in the test with SF-268 CNS and in the test on SK-MEL-2 melanoma was > 100 µM throughout. The TGI in the test on SK-OV-3 ovarian is > 100 µM.
Turning to `COC(=O)c1ccccc1NC(=S)NN(C)C`, the TGI with 786-0 renal, in the test with CCRF-CEM leukemia, in the test with MDA-MB-435, in the test with NCI-H522 lung, in the test on OVCAR-4 ovarian and with SK-MEL-2 melanoma was > 100 µM in each case. In addition, the TGI in the test with SK-OV-3 ovarian and with SNB-19 CNS was > 100 µM each time.
Regarding `C=CCNc1nc(O)c(/C=C2\C=Nc3ncccc32)s1`, the GI50 is 1.94 µM in the test on MDA-MB-435; 2.74 µM in the test with NCI-H460 lung; 0.725 µM in the test with NCI-H522 lung; 3.03 µM with OVCAR-4 ovarian; 2.1 µM in the test on SF-268 CNS; 2.23 µM in the test on SK-MEL-2 melanoma. Besides, the GI50 in the test with SK-OV-3 ovarian was 2.21 µM; with SNB-19 CNS, 2.32 µM. For the same molecule, the TGI in the test on MDA-MB-435 stood at 4.96 µM; in the test with NCI-H460 lung it was 9.96 µM; in the test with NCI-H522 lung, 4.85 µM; with OVCAR-4 ovarian, 24.9 µM; in the test on SF-268 CNS, 6.92 µM; in the test with SK-MEL-2 melanoma it was 5.09 µM. For the same molecule, the TGI was 8.66 µM in the test on SK-OV-3 ovarian and 7.29 µM with SNB-19 CNS.
Take `COc1cc(OCc2nc3cc(C(F)(F)F)ccc3nc2-c2ccccc2)cc(OC)c1OC`: the TGI in the test on 786-0 renal, in the test on CCRF-CEM leukemia, with MDA-MB-435, in the test with NCI-H460 lung, in the test with OVCAR-4 ovarian and in the test on SF-268 CNS was > 100 µM in each case. In addition, the TGI with SK-MEL-2 melanoma, in the test with SK-OV-3 ovarian and in the test with SNB-19 CNS was > 100 µM each time.
In the case of `Cc1nc(N)sc1C(=O)Nc1ncn[nH]1`, the TGI in the test on 786-0 renal, in the test on MDA-MB-435, in the test with NCI-H460 lung, in the test with NCI-H522 lung, with OVCAR-4 ovarian and in the test with SF-268 CNS was > 100 µM each time. The TGI in the test on SK-MEL-2 melanoma, in the test with SK-OV-3 ovarian and in the test on SNB-19 CNS was > 100 µM throughout.
For `CCCc1n[nH]c(=O)n1N1C(=O)C=CC1=O`, the TGI in the test on 786-0 renal, with CCRF-CEM leukemia, in the test on MDA-MB-435, in the test on NCI-H460 lung, in the test with NCI-H522 lung and in the test with OVCAR-4 ovarian was > 100 µM in each case. Also, the TGI in the test with SK-MEL-2 melanoma and in the test with SK-OV-3 ovarian was > 100 µM each time.
